Patent US20240382590A1, “NOVEL TUMOR-SPECIFIC ANTIGENS FOR CANCER STEM CELLS AND USES THEREOF” (UNIVERSITÉ DE MONTRÉAL, priority 2021, published 2024)
Entries after “also recorded” stand apart in the source; their conditions may differ.

Tests used:
CD8+ T cells [1] = assay: Peptide-HLA tetramer staining after in vitro peptide-specific T cell expansion; assay type: cell-based, human; conditions: healthy donor PBMCs after 20 days in vitro stimulation
Protocol: T cells were resuspended at 2×10^6/mL in AIM V media supplemented with 50 μg/mL gentamicin (ThermoFisher Scientific) and 1% HEPES. […] Cells were cultured for 10 days at 37° C., 5% CO2. On day 3 and 7, half the culture media was replaced with fresh culture media containing 100 IU/mL IL-2, 50 ng/mL IL-7, and 50 ng/mL IL-15 (day 3) and 200 IU/mL IL-2, 50 ng/mL IL-7, and 50 ng/mL IL-15 (day 7). On day 10, thawed PBMCs from the same donor were used to generate a new batch of T cell-depleted cells.

cytolytic T lymphocytes = conditions: MAGEA4-derived paMAPs; cited from earlier work
CD8+ T cells [2] = assay: FEST assay (functional expansion of specific T cells, TCR Vβ CDR3 sequencing); assay type: cell-based, human; conditions: for Number of TCRβ clonotypes specifically expanded: FEST assay, donor D12, stimulation with a single peptide or a pool; for TCRß clonotype (TCRß CDR3 sequence) amplified: Table 3B, in vitro stimulation with peptide alone or pool, donor D12
Protocol: In vitro peptide-specific T cell expansion. Peptide-specific CD8^+ T cells from 4 healthy donors were expanded in vitro (D11, D12, D13, and D14). The expanded cells from D12 were used for FEST and tetramer staining assays, whereas the expanded cells from D11, D13, and D14 were used only for tetramer staining assays.
T cells were cultured as previously described, with minor modifications (Danilova et al., 2018). Briefly, on day 0, thawed PBMCs from each healthy donor (BioIVT) were T cell-enriched using the Human Pan T cell isolation kit (Miltenyi Biotec). T cells were resuspended at 2×10^6/mL in AIM V media supplemented with 50 μg/mL gentamicin (ThermoFisher Scientific) and 1% HEPES. The T cell-negative fraction was irradiated at 30 Gy, washed, and resuspended at 2×10^6/mL in AIM V media supplemented with 50 μg/mL gentamicin and 1% HEPES. 2.5 ml per well of both T cells and irradiated T cell-depleted cells were added to a 6-well plate, along with either a peptide alone, a peptide pool (up to 6 MAPs per pool, 1 μg/mL final concentration for each MAP) or without peptide. Cells were cultured for 10 days at 37° C., 5% CO2. On day 3 and 7, half the culture media was replaced with fresh culture media containing 100 IU/mL IL-2, 50 ng/mL IL-7, and 50 ng/mL IL-15 (day 3) and 200 IU/mL IL-2, 50 ng/mL IL-7, and 50 ng/mL IL-15 (day 7). On day 10, thawed PBMCs from the same donor were used to generate a new batch of T cell-depleted cells. These cells were irradiated at 30 Gy and added to cultures at a 1:1 T cell:non-T cell ratio, along with 1 μg/mL of relevant peptide(s) or without peptide. On day 13 and 17, at least half the culture media was replaced with fresh culture media (final concentrations: 100 IU/mL IL-2, 25 ng/mL IL-7, and 25 ng/mL IL-15). On day 20, cells were harvested to perform tetramer staining and/or FEST assays.
FEST assays. For FEST assays, CD8^+ cells were further isolated using the Human CD8^+ T Cell Isolation Kit (Miltenyi Biotec). As a negative control, CD8^+ T cells were also isolated from freshly thawed uncultured PBMCs of the same healthy donor. DNA was extracted from CD8^+ T cells using a QIAGEN DNA blood mini kit (QIAGEN). TCR Vβ CDR3 sequencing was performed using the survey resolution of the immunoSEQ platform (Adaptive Biotechnologies). Raw data exported from the immunoSEQ portal were processed with the FEST web tool (www.stat-apps.onc.jhmi.edu/FEST).
Given that paMAPs are appealing targets for immunotherapy, their immunogenicity was tested using in vitro T cell assays with peripheral blood mononuclear cells (PBMCs) from healthy donors. paMAPs were prioritized based on four criteria: i) the immunogenicity score predicted by Repitope, a machine learning algorithm that uses public T-cell receptor (TCR) databases to predict a probability of T cell response (Ogishi and Yotsuyanagi, 2019), ii) the HLA allotype presenting the paMAP (HLAA*02:01 or HLA-B*53:01 shared by the iPSCs and PBMCs donors), iii) expression in minimum 10% of the samples in at least one TOGA cancer type (FIG. 3), and iv) novel MAP status. The […] T cell response against 11 paMAPs was tested using peptide-HLA tetramer staining and/or more sensitive functional expansion of specific T cells (FEST) assays (Danilova et al., 2018). In FEST assays, TCR sequencing is performed on T cells stimulated or not with synthetic paMAPs. T cells were stimulated in vitro with autologous T cell-depleted PBMCs pulsed with individual or pooled (n=5 or 6) paMAPs (Tables 3A-B).

iPSCs [3] = assay: Flow cytometry of surface HLA-A,B,C (QIFIKIT) and pluripotency markers on IFN-γ-treated iPSCs; assay type: cell-based, human; conditions: 40 ng/mL IFN-γ, 72 h
Protocol: (§1) hiPSC22 cells derived from adult human skin fibroblasts using defective polycistronic retroviruses expressing OCT4, SOX2, KLF4, and c-MYC were obtained from Takara Bio (Cellartis human iPS cell line 22). hiPSC22 cells were cultured in the Cellartis® DEF-CS™ 500 Basal Medium with Additives (Takara Bio) on coated (Cellartis DEF-CS 500 COAT-1, Takara Bio) cell culture vessels according to the manufacturer's instructions. Fibro-iPSC.1 and Fibro-iPSC.2 cells are biological replicates of the same iPS cell line reprogrammed from adult human dermal fibroblasts using lentiviruses expressing OCT4, SOX2, NANOG, and LIN28, as per (Hong et al., 2011), and were provided by Dr. Mick Bathia (McMaster University, Ontario, Canada). […]
Single-cell suspensions were stained with PerCP-Cy5.5 Mouse anti-Oct3/4, PE Mouse anti-SSEA-1, Alexa Fluor 647 Mouse anti-SSEA-4 antibodies or the respective isotypes (Human and Mouse Pluripotent Stem Cell Analysis Kit, BD Biosciences), APC/Cyanine7 anti-human/mouse SSEA-3 (BioLegend) or the APC-Cy™7 Rat IgM, K Isotype Control (BD Biosciences) according to the manufacturers' instructions. Surface HLA-A,B,C molecules were quantified using a QIFIKIT (FITC conjugate, Agilent Dako) as per the manufacturer's instructions. Flow cytometry experiments were performed on a ZE5 (Bio-Rad), and data were analyzed using the FlowJo software. […]

iPSCs [4] = assay: MS-based identification of MHC I-associated peptides from iPSCs; set-up: species or system human; conditions: 40 ng/mL IFN-γ, 72 h
Protocol: as §1, with “Canada). Fibro-iPSC.1 and Fibro-iPSC.2 were cultured on Matrigel® (Corning, diluted in DMEM/F-12 from Gibco)-coated cell culture vessels in mTeSR1 medium ([…]), according to the manufacturer's instructions. All iPSCs were passaged using the Gentle Cell Dissociation Reagent ([…]) or were dissociated to single cells using TrypLE Express (Gibco) and washed with DPBS (Gibco) for downstream analyses. After removing 3-5×10^6 iPSCs for RNA-seq and 5×10^6 cells for flow cytometry, iPSCs were pelleted and stored at −80 degrees C. until MS analysis.” for “Canada).”

FLLPGVLLSEA (listed as Homo sapiens) [previously reported saMAP from UGT3A2]
T-cell response (immunogenicity) by peptide-HLA tetramer staining (CD8+ T cells [1]): immunogenic in one donor

KVLEHVVRV (listed as Homo sapiens) [previously reported paMAP derived from MAGEA4]
Immunogenic in previous studies (cytolytic T lymphocytes): immunogenic in previous studies

SLLGSSEILEV (listed as Homo sapiens) [paMAP]
T-cell response (immunogenicity) by peptide-HLA tetramer staining (CD8+ T cells [1]): one out of four donors | Number of TCRβ clonotypes specifically expanded (CD8+ T cells [2]): two to four | TCRß clonotype (TCRß CDR3 sequence) amplified (CD8+ T cells [2]; listed as pa_12): CASSSRTDTYSPLHF (SEQ ID NO: 81); also recorded: CASSLGRWNSPLHF (SEQ ID NO: 82)

KLAQIIRQV (listed as Homo sapiens) [paMAP]
T-cell response (immunogenicity) by peptide-HLA tetramer staining (CD8+ T cells [1]): one out of four donors

GVYDGREHTV (listed as Homo sapiens) [previously reported paMAP derived from MAGEA4]
Immunogenic in previous studies (cytolytic T lymphocytes): immunogenic in previous studies

LPMWKALLF (listed as Homo sapiens) [paMAP]
Number of TCRβ clonotypes specifically expanded (CD8+ T cells [2]): two to four | TCRß clonotype (TCRß CDR3 sequence) amplified (CD8+ T cells [2]; listed as pa_06): CASSGPGDQPQHF (SEQ ID NO: 83); also recorded: CASSEWGSRAGGGDTQYF (SEQ ID NO: 84)

VTLSTYFHV (listed as Homo sapiens) [paMAP]
Number of TCRβ clonotypes specifically expanded (CD8+ T cells [2]): two to four | TCRß clonotype (TCRß CDR3 sequence) amplified (CD8+ T cells [2]; listed as pa_10): CASSKWGSYGYTF (SEQ ID NO: 75); also recorded: CASSLPDTTYEQYF (SEQ ID NO: 76)

IFN-γ: recombinant human IFN-γ (Gibco) used to raise MHC I on iPSCs
Increase in surface HLA-A/B/C levels (iPSCs [3]; average of three fibroblast-derived iPSC samples): 34 fold | Expression of canonical pluripotency markers (iPSCs [3]; iPSCs): without affecting the expression of canonical pluripotency markers | More unique MAPs detected than for untreated iPSCs (iPSCs [4]): 1.8-4.5 fold

ALYPQPPTV (listed as Homo sapiens) [paMAP]
Number of TCRβ clonotypes specifically expanded (CD8+ T cells [2]): two to four | TCRß clonotype (TCRß CDR3 sequence) amplified (CD8+ T cells [2]; listed as pa_11): CASSYRTGSAEAFF (SEQ ID NO: 77); also recorded: CASSLGGAYEQYF (SEQ ID NO: 78); also recorded: CASSYPQGGEQFF (SEQ ID NO: 79); also recorded: CATSRGTGVNTEAFF (SEQ ID NO: 80)
